Source: ChEMBL document CHEMBL1275539 (2008)
≈ marks a conversion by molar mass, not a printed value.

Columns and labels:
Assay type in all cases: functional
Streptococcus pneumoniae [1] = assay: Antibacterial activity against cefotaxime-resistant Streptococcus pneumoniae isolate by agar dilution method
Streptococcus pneumoniae [2] = assay: Antibacterial activity against penicillin-susceptible Streptococcus pneumoniae isolate by agar dilution method
Streptococcus pneumoniae [3] = assay: Antibacterial activity against amoxicillin-intermediate Streptococcus pneumoniae isolate by agar dilution method
Streptococcus pneumoniae [4] = assay: Antibacterial activity against penicillin-nonsusceptible Streptococcus pneumoniae isolate by agar dilution method
Streptococcus pneumoniae [5] = assay: Antibacterial activity against cefotaxime-intermediate Streptococcus pneumoniae isolate by agar dilution method
Streptococcus pneumoniae [6] = assay: Antibacterial activity against amoxicillin-resistant Streptococcus pneumoniae isolate by agar dilution method
Streptococcus pneumoniae [7] = assay: Antibacterial activity against levofloxacin-resistant Streptococcus pneumoniae isolate by agar dilution method
Streptococcus pneumoniae [8] = assay: Antibacterial activity against erythromycin-resistant Streptococcus pneumoniae isolate by agar dilution method
Streptococcus pneumoniae [9] = assay: Antibacterial activity against amoxicillin-resistant Streptococcus pneumoniae assessed as percent susceptible isolates by agar dilution method
Streptococcus pneumoniae [10] = assay: Antibacterial activity against levofloxacin-resistant Streptococcus pneumoniae assessed as percent susceptible isolates by agar dilution method
Streptococcus pneumoniae [11] = assay: Antibacterial activity against penicillin-susceptible Streptococcus pneumoniae assessed as percent susceptible isolates by agar dilution method
Streptococcus pneumoniae [12] = assay: Antibacterial activity against penicillin-nonsusceptible Streptococcus pneumoniae assessed as percent susceptible isolates by agar dilution method
Streptococcus pneumoniae [13] = assay: Antibacterial activity against cefotaxime-intermediate Streptococcus pneumoniae assessed as percent susceptible isolates by agar dilution method
Streptococcus pneumoniae [14] = assay: Antibacterial activity against amoxicillin-intermediate Streptococcus pneumoniae assessed as percent susceptible isolates by agar dilution method
Streptococcus pneumoniae [15] = assay: Antibacterial activity against cefotaxime-resistant Streptococcus pneumoniae assessed as percent susceptible isolates by agar dilution method
Streptococcus pneumoniae [16] = assay: Antibacterial activity against erythromycin-resistant Streptococcus pneumoniae assessed as percent susceptible isolates by agar dilution method

SMILES	MIC50 (Streptococcus pneumoniae [1])	MIC50 (Streptococcus pneumoniae [2])	MIC90 (Streptococcus pneumoniae [2])	MIC50 (Streptococcus pneumoniae [3])	MIC90 (Streptococcus pneumoniae [3])	MIC50 (Streptococcus pneumoniae [4])	MIC90 (Streptococcus pneumoniae [4])	MIC50 (Streptococcus pneumoniae [5])	MIC90 (Streptococcus pneumoniae [5])	MIC50 (Streptococcus pneumoniae [6])	MIC50 (Streptococcus pneumoniae [7])	MIC90 (Streptococcus pneumoniae [7])	MIC50 (Streptococcus pneumoniae [8])	MIC90 (Streptococcus pneumoniae [8])	MIC90 (Streptococcus pneumoniae [1])	Activity (Streptococcus pneumoniae [10])	Activity (Streptococcus pneumoniae [12])	MIC90 (Streptococcus pneumoniae [6])	Activity (Streptococcus pneumoniae [13])	Activity (Streptococcus pneumoniae [16])	other results
CC1(C)S[C@@H]2[C@H](NC(=O)[C@H](N)c3ccccc3)C(=O)N2[C@H]1C(=O)O [AMPICILLIN]	8 µg/mL (≈ 22.9 µM)	2 µg/mL (≈ 5.72 µM)	8 µg/mL (≈ 22.9 µM)	4 µg/mL (≈ 11.4 µM)	8 µg/mL (≈ 22.9 µM)	8 µg/mL (≈ 22.9 µM)	≥ 16 µg/mL	8 µg/mL (≈ 22.9 µM)	≥ 16 µg/mL	8 µg/mL (≈ 22.9 µM)	0.12 µg/mL (≈ 0.343 µM)	8 µg/mL (≈ 22.9 µM)	4 µg/mL (≈ 11.4 µM)	8 µg/mL (≈ 22.9 µM)							
CC1(C)S[C@@H]2[C@H](NC(=O)Cc3ccccc3)C(=O)N2[C@H]1C(=O)O [PENICILLIN G]	4 µg/mL (≈ 12 µM)	1 µg/mL (≈ 2.99 µM)	2 µg/mL (≈ 5.98 µM)	2 µg/mL (≈ 5.98 µM)	2 µg/mL (≈ 5.98 µM)	4 µg/mL (≈ 12 µM)	4 µg/mL (≈ 12 µM)	2 µg/mL (≈ 5.98 µM)	4 µg/mL (≈ 12 µM)	2 µg/mL (≈ 5.98 µM)	0.06 µg/mL (≈ 0.179 µM)	2 µg/mL (≈ 5.98 µM)	1 µg/mL (≈ 2.99 µM)	2 µg/mL (≈ 5.98 µM)	8 µg/mL (≈ 23.9 µM)	98%	0%	4 µg/mL (≈ 12 µM)	76.4%	93.5%	Activity (Streptococcus pneumoniae [9]): 71.5%; Activity (Streptococcus pneumoniae [11]): 100%; Activity (Streptococcus pneumoniae [14]): 94.1%; Activity (Streptococcus pneumoniae [15]): 31.3%
CO/N=C(\C(=O)N[C@@H]1C(=O)N2C(C(=O)[O-])=C(C[N+]3(C)CCCC3)CS[C@H]12)c1csc(N)n1	2 µg/mL (≈ 4.16 µM)	1 µg/mL (≈ 2.08 µM)	2 µg/mL (≈ 4.16 µM)	2 µg/mL (≈ 4.16 µM)	2 µg/mL (≈ 4.16 µM)	2 µg/mL (≈ 4.16 µM)	4 µg/mL (≈ 8.32 µM)	2 µg/mL (≈ 4.16 µM)	2 µg/mL (≈ 4.16 µM)	2 µg/mL (≈ 4.16 µM)	0.25 µg/mL (≈ 0.52 µM)	2 µg/mL (≈ 4.16 µM)	1 µg/mL (≈ 2.08 µM)	2 µg/mL (≈ 4.16 µM)	4 µg/mL (≈ 8.32 µM)	82.9%	8.3%	8 µg/mL (≈ 16.6 µM)	29.9%	64.9%	Activity (Streptococcus pneumoniae [9]): 16.4%; Activity (Streptococcus pneumoniae [11]): 66.4%; Activity (Streptococcus pneumoniae [14]): 40%; Activity (Streptococcus pneumoniae [15]): 12.5%
CCO/N=C(\C(=O)N[C@@H]1C(=O)N2C(C(=O)[O-])=C(Sc3nc(-c4cc[n+](C)cc4)cs3)CS[C@H]12)c1nsc(NP(=O)(O)O)n1 [CEFTAROLINE FOSAMIL]	0.25 µg/mL (≈ 0.365 µM)	0.12 µg/mL (≈ 0.175 µM)	0.12 µg/mL (≈ 0.175 µM)	0.12 µg/mL (≈ 0.175 µM)	0.25 µg/mL (≈ 0.365 µM)	0.12 µg/mL (≈ 0.175 µM)	0.25 µg/mL (≈ 0.365 µM)	0.12 µg/mL (≈ 0.175 µM)	0.25 µg/mL (≈ 0.365 µM)	0.12 µg/mL (≈ 0.175 µM)	0.03 µg/mL (≈ 0.0438 µM)	0.12 µg/mL (≈ 0.175 µM)	0.12 µg/mL (≈ 0.175 µM)	0.25 µg/mL (≈ 0.365 µM)	0.25 µg/mL (≈ 0.365 µM)			0.25 µg/mL (≈ 0.365 µM)			
C[C@H]1COc2c(N3CCN(C)CC3)c(F)cc3c(=O)c(C(=O)O)cn1c23.C[C@H]1COc2c(N3CCN(C)CC3)c(F)cc3c(=O)c(C(=O)O)cn1c23.O [LEVOFLOXACIN]				≤ 1 µg/mL	16 µg/mL	≤ 1 µg/mL	≤ 1 µg/mL	≤ 1 µg/mL	1 µg/mL	< 1 µg/mL	16 µg/mL	≥ 32 µg/mL		16 µg/mL	1 µg/mL	0%	95%	16 µg/mL	97.2%	72%	Activity (Streptococcus pneumoniae [9]): 86.7%; Activity (Streptococcus pneumoniae [15]): 93.8%
CO/N=C(\C(=O)N[C@@H]1C(=O)N2C(C(=O)O)=C(COC(N)=O)CS[C@H]12)c1ccco1 [CEFUROXIME]	16 µg/mL (≈ 37.7 µM)	4 µg/mL (≈ 9.43 µM)	8 µg/mL (≈ 18.9 µM)	4 µg/mL (≈ 9.43 µM)	16 µg/mL (≈ 37.7 µM)	8 µg/mL (≈ 18.9 µM)	16 µg/mL (≈ 37.7 µM)	8 µg/mL (≈ 18.9 µM)	16 µg/mL (≈ 37.7 µM)	8 µg/mL (≈ 18.9 µM)	0.25 µg/mL (≈ 0.589 µM)	8 µg/mL (≈ 18.9 µM)	4 µg/mL (≈ 9.43 µM)	8 µg/mL (≈ 18.9 µM)	≥ 32 µg/mL	55.3%	0%	16 µg/mL (≈ 37.7 µM)	0%	26.8%	Activity (Streptococcus pneumoniae [11]): 31.6%; Activity (Streptococcus pneumoniae [14]): 0%
CO/N=C(\C(=O)N[C@@H]1C(=O)N2C(C(=O)O)=C(COC(C)=O)CS[C@H]12)c1csc(N)n1 [CEFOTAXIME]	4 µg/mL (≈ 8.78 µM)	1 µg/mL (≈ 2.2 µM)	2 µg/mL (≈ 4.39 µM)	1 µg/mL (≈ 2.2 µM)	2 µg/mL (≈ 4.39 µM)	2 µg/mL (≈ 4.39 µM)	4 µg/mL (≈ 8.78 µM)	2 µg/mL (≈ 4.39 µM)	2 µg/mL (≈ 4.39 µM)	2 µg/mL (≈ 4.39 µM)	0.06 µg/mL (≈ 0.132 µM)	1 µg/mL (≈ 2.2 µM)	1 µg/mL (≈ 2.2 µM)	2 µg/mL (≈ 4.39 µM)	8 µg/mL (≈ 17.6 µM)		25%	2 µg/mL (≈ 4.39 µM)	0%	77%	Activity (Streptococcus pneumoniae [9]): 49.7%; Activity (Streptococcus pneumoniae [11]): 80.7%; Activity (Streptococcus pneumoniae [14]): 62.4%
CO/N=C(\C(=O)N[C@@H]1C(=O)N2C(C(=O)O)=C(CSc3nc(=O)c(O)nn3C)CS[C@H]12)c1csc(N)n1 [CEFTRIAXONE]	2 µg/mL (≈ 3.61 µM)	0.5 µg/mL (≈ 0.902 µM)	1 µg/mL (≈ 1.8 µM)	1 µg/mL (≈ 1.8 µM)	1 µg/mL (≈ 1.8 µM)	1 µg/mL (≈ 1.8 µM)	2 µg/mL (≈ 3.61 µM)	1 µg/mL (≈ 1.8 µM)	1 µg/mL (≈ 1.8 µM)	1 µg/mL (≈ 1.8 µM)	0.06 µg/mL (≈ 0.108 µM)	1 µg/mL (≈ 1.8 µM)	0.5 µg/mL (≈ 0.902 µM)	1 µg/mL (≈ 1.8 µM)	4 µg/mL (≈ 7.21 µM)	99.3%	83.3%	1 µg/mL (≈ 1.8 µM)	97.2%	97.1%	Activity (Streptococcus pneumoniae [9]): 95.2%; Activity (Streptococcus pneumoniae [11]): 98.8%; Activity (Streptococcus pneumoniae [14]): 95.3%; Activity (Streptococcus pneumoniae [15]): 31.3%
CC[C@H]1OC(=O)[C@H](C)[C@@H](O[C@H]2C[C@@](C)(OC)[C@@H](O)[C@H](C)O2)[C@H](C)[C@@H](O[C@@H]2O[C@H](C)C[C@H](N(C)C)[C@H]2O)[C@](C)(O)C[C@@H](C)C(=O)[C@H](C)[C@@H](O)[C@]1(C)O [ERYTHROMYCIN]				≥ 32 µg/mL	≥ 32 µg/mL	≤ 0.12 µg/mL	≥ 32 µg/mL	0.25 µg/mL (≈ 0.341 µM)	≥ 32 µg/mL	< 0.12 µg/mL						40.8%	63.3%		50%	0%	Activity (Streptococcus pneumoniae [9]): 58.2%; Activity (Streptococcus pneumoniae [14]): 30.6%; Activity (Streptococcus pneumoniae [15]): 62.5%
CC1(C)S[C@@H]2[C@H](NC(=O)[C@H](N)c3ccc(O)cc3)C(=O)N2[C@H]1C(=O)O [AMOXICILLIN]	8 µg/mL (≈ 21.9 µM)	2 µg/mL (≈ 5.47 µM)	8 µg/mL (≈ 21.9 µM)	4 µg/mL (≈ 10.9 µM)	4 µg/mL (≈ 10.9 µM)	8 µg/mL (≈ 21.9 µM)	≥ 16 µg/mL	4 µg/mL (≈ 10.9 µM)	16 µg/mL (≈ 43.8 µM)	8 µg/mL (≈ 21.9 µM)	≤ 0.06 µg/mL	8 µg/mL (≈ 21.9 µM)	2 µg/mL (≈ 5.47 µM)	8 µg/mL (≈ 21.9 µM)	16 µg/mL (≈ 43.8 µM)	73.7%	13.3%	16 µg/mL (≈ 43.8 µM)	30.6%	62.2%	Activity (Streptococcus pneumoniae [11]): 66.7%; Activity (Streptococcus pneumoniae [14]): 0%; Activity (Streptococcus pneumoniae [15]): 6.3%
